Source: publication PMC10035947, “Development of novel anilinoquinazoline-based carboxylic acids as non-classical carbonic anhydrase IX and XII inhibitors” (Journal of Enzyme Inhibition and Medicinal Chemistry, 2023)
Like-named read-outs stand apart in the source and are kept apart here.

Assays:
Experiment in all cases: NCI SRB assay
Format in all cases: cell-based, human
[1] = system: HCT-116; conditions: for CC50: read-out: LC50 (the source's name)
[2] = system: NCI/ADR-RES; conditions: for CC50: read-out: LC50 (the source's name)
[3] = system: T-47D; conditions: for GI50 / TGI / CC50: 5-dose; for CC50: read-out: LC50 (the source's name)
[4] = system: IGROV1; conditions: for CC50: read-out: LC50 (the source's name)
[5] = system: NCI-H460
[6] = system: SW-620
[7] = system: CCRF-CEM; conditions: for GI50 / TGI / CC50: 5-dose; for CC50: read-out: LC50 (the source's name)
[8] = system: HOP-92; conditions: for CC50: read-out: LC50 (the source's name)
[9] = system: TK-10; conditions: for CC50: read-out: LC50 (the source's name)
[10] = system: NCI-H23
[11] = system: SF-295
[12] = system: UACC-257; conditions: for CC50: read-out: LC50 (the source's name)
[13] = system: ACHN; conditions: for GI50 / TGI / CC50: 5-dose; for CC50: read-out: LC50 (the source's name)
[14] = system: MCF7
[15] = Homo sapiens, IGROV-1, IGROV1, 5-dose
[16] = Homo sapiens, HOP-92, HOP-92, 5-dose

Cc1ccc(-c2nc(Nc3ccccc3C(=O)O)c3ccccc3n2)cc1 [6b, 2-((2-(p-Tolyl)quinazolin-4-yl)amino)benzoic acid]
GI% ([1]; HCT-116, 10 μM): 93% | Growth Percent ([1]; HCT-116, 1.00E-5 Molar): 6.70% | TGI ([1]; HCT-116, 5-dose): 36.1 µM | TGI ([1]; HCT-116, 5-dose, listed as D - 835857): 3.61E-5 Molar | CC50 ([1]; HCT-116, 5-dose): < 100 µM | CC50 ([1]; Homo sapiens, HCT-116, HCT-116, 5-dose): > 100 µM | GI50 ([1]; Homo sapiens, HCT-116, 5-dose): 10.1 µM | GI% ([2]; 10 μM): 95% | Growth Percent ([2]; 1.00E-5 Molar): 5.16% | TGI ([2]; 5-dose): 98.5 µM | TGI ([2]; 5-dose, listed as D - 835857): 9.85E-5 Molar | CC50 ([2]; 5-dose): < 100 µM | GI50 ([2]; Homo sapiens, 5-dose): 16.8 µM | CC50 ([2]; Homo sapiens, 5-dose): > 100 µM | GI% ([3]; 10 μM): 89% | Growth Percent ([3]; 1.00E-5 Molar): 10.72% | GI50 [3]: 6.3 µM | TGI [3]: 70.0 µM | TGI ([3]; listed as D - 835857): 7.00E-5 Molar | CC50 [3]: < 100 µM | GI50 ([3]; Homo sapiens, T47D): 6.29 µM | CC50 ([3]; Homo sapiens, T47D): > 100 µM | GI50 [4, 15]: 19.1 µM | CC50 [4, 15]: > 100 µM | GI% ([4]; IGROV1, 10 μM): 69% | Growth Percent ([4]; IGROV1, 1.00E-5 Molar): 31.06% | TGI ([4]; IGROV1, 5-dose): 87.1 µM | TGI ([4]; IGROV1, 5-dose, listed as D - 835857): 8.71E-5 Molar | CC50 ([4]; IGROV1, 5-dose): < 100 µM | GI50 ([5]; Homo sapiens, NCI-H460, NCI-H460, 5-dose): 8.52 µM | LC50 (concentration giving 50% net cell kill) ([5]; Homo sapiens, NCI-H460, 5-dose): 84 µM | GI% ([5]; NCI-H460, 10 μM): 109% | Growth Percent ([5]; NCI-H460, 1.00E-5 Molar): -9.44% | GI50 ([5]; NCI-H460, 5-dose): 8.5 µM | TGI ([5]; NCI-H460, 5-dose): 27.7 µM | TGI ([5]; NCI-H460, 5-dose, listed as D - 835857): 2.77E-5 Molar | LC50 ([6]; Homo sapiens, SW-620, SW-620, 5-dose): > 100 µM | GI50 ([6]; Homo sapiens, SW-620, 5-dose): 18.2 µM | GI% ([6]; SW-620, 10 μM): 86% | Growth Percent ([6]; SW-620, 1.00E-5 Molar): 14.46% | LC50 ([6]; SW-620, 5-dose): < 100 µM | TGI ([6]; SW-620, 5-dose): <100 µM | TGI ([6]; SW-620, 5-dose, listed as D - 835857): > 1.00E-4 Molar | GI% ([7]; 10 μM): 87% | Growth Percent ([7]; 1.00E-5 Molar): 12.80% | GI50 [7]: 5.7 µM | TGI [7]: <100 µM | TGI ([7]; listed as D - 835857): > 1.00E-4 Molar | CC50 [7]: < 100 µM | GI50 ([7]; Homo sapiens): 5.72 µM | CC50 ([7]; Homo sapiens): > 100 µM | GI% ([8]; HOP-92, 10 μM): 120% | Growth Percent ([8]; HOP-92, 1.00E-5 Molar): -19.52% | GI50 ([8]; HOP-92, 5-dose): 2.9 µM | TGI ([8]; HOP-92, 5-dose): 29.3 µM | TGI ([8]; HOP-92, 5-dose, listed as D - 835857): 2.93E-5 Molar | CC50 ([8]; HOP-92, 5-dose): < 100 µM | GI50 [8, 16]: 2.85 µM | CC50 [8, 16]: > 100 µM | CC50 ([9]; Homo sapiens, TK-10, TK-10, 5-dose): > 100 µM | GI50 ([9]; Homo sapiens, TK-10, 5-dose): 29.3 µM | GI% ([9]; TK-10, 10 μM): 41% | Growth Percent ([9]; TK-10, 1.00E-5 Molar): 58.93% | TGI ([9]; TK-10, 5-dose): <100 µM | TGI ([9]; TK-10, 5-dose, listed as D - 835857): > 1.00E-4 Molar | CC50 ([9]; TK-10, 5-dose): < 100 µM | LC50 ([10]; Homo sapiens, NCI-H23, NCI-H23, 5-dose): > 100 µM | GI50 ([10]; Homo sapiens, NCI-H23, 5-dose): 15.7 µM | GI% ([10]; NCI-H23, 10 μM): 104% | Growth Percent ([10]; NCI-H23, 1.00E-5 Molar): -4.11% | LC50 ([10]; NCI-H23, 5-dose): < 100 µM | TGI ([10]; NCI-H23, 5-dose): 44.4 µM | TGI ([10]; NCI-H23, 5-dose, listed as D - 835857): 4.44E-5 Molar | GI50 ([11]; Homo sapiens, SF-295, 5-dose): 7.04 µM | CC50 ([11]; Homo sapiens, SF-295, 5-dose, read-out: LC50 (the source's name)): 86 µM | GI% ([11]; SF-295, 10 μM): 94% | Growth Percent ([11]; SF-295, 1.00E-5 Molar): 5.81% | TGI ([11]; SF-295, 5-dose): 27.0 µM | TGI ([11]; SF-295, 5-dose, listed as D - 835857): 2.70E-5 Molar | CC50 ([12]; Homo sapiens, UACC-257, UACC-257, 5-dose): > 100 µM | GI50 ([12]; Homo sapiens, UACC-257, 5-dose): 15.3 µM | GI% ([12]; UACC-257, 10 μM): 71% | Growth Percent ([12]; UACC-257, 1.00E-5 Molar): 28.64% | TGI ([12]; UACC-257, 5-dose): 90.3 µM | TGI ([12]; UACC-257, 5-dose, listed as D - 835857): 9.03E-5 Molar | CC50 ([12]; UACC-257, 5-dose): < 100 µM | GI% ([13]; 10 μM): 92% | Growth Percent ([13]; 1.00E-5 Molar): 7.89% | GI50 [13]: 6.4 µM | TGI [13]: 91.1 µM | TGI ([13]; listed as D - 835857): 9.11E-5 Molar | CC50 [13]: < 100 µM | GI50 ([13]; Homo sapiens): 6.44 µM | CC50 ([13]; Homo sapiens): > 100 µM | GI50 ([14]; Homo sapiens, MCF7, MCF7, 5-dose): 9.41 µM | CC50 ([14]; Homo sapiens, MCF7, MCF7, 5-dose, read-out: LC50 (the source's name)): > 100 µM | GI% ([14]; MCF7, 10 μM): 92% | Growth Percent ([14]; MCF7, 1.00E-5 Molar): 7.70%
